From publication PMC9231138, “Dihydrotanshinone I Enhances Cell Adhesion and Inhibits Cell Migration in Osteosarcoma U−2 OS Cells through CD44 and Chemokine Signaling” (Molecules, 2022)
Like-named read-outs stand apart in the source and are kept apart here.

What was measured:
NRK−49F cells = test: MTT cell proliferation assay, NRK−49F cells; assay type: cell-based, rat; conditions: MTT, 24 h, normal rat kidney cells, read-out: IC50 NRK−49F cells (24 h)
Protocol: (§1) The effects of tanshinones (DS−1 to DS−5) on the proliferation of U−2 OS cells, HeLa cells, and NRK−49F cells were measured by the classical MTT method with minor modifications as follows. Cells were seeded at 5000 per well in 96-well plates, with each group being repeated in 5 wells, and were incubated for 12 h. DS−1 to DS−5 were added at gradient concentrations, then incubated for 24 and 48 h, respectively. Then, 20 μL MTT solution (solved in PBS, 5 mg/mL) was added to every well, and the cells were further incubated at 37 °C for 4 h until a purple precipitate was visible. The plate was centrifuged at 1000 rpm for 1 min; the supernatant was suctioned, and 150 μL of DMSO was added per well; the plate was shaken on a shaker protected from light for 15 min. We placed the plate in an enzyme marker and measured the absorbance values at a 490 nm wavelength.

U−2 OS cells = test: MTT cell proliferation assay, U−2 OS cells; assay type: cell-based; conditions: Homo sapiens, U2OS, MTT
Protocol: as §1

HeLa cells = test: MTT cell proliferation assay, HeLa cells; assay type: cell-based; conditions: Homo sapiens, MTT, 24 h, read-out: IC50 HeLa cells (24 h)
Protocol: as §1

[1] = 24 h, read-out: IC50 U−2 OS cells (24 h)
[2] = 48 h, read-out: IC50 U−2 OS cells (48 h)

| IC50 (HeLa cells) | SMILES | IC50 (NRK−49F cells) | IC50 (U−2 OS cells; [1]) | IC50 (U−2 OS cells; [2]) |
| --- | --- | --- | --- | --- |
| 20.9 ± 2.81 µM | Cc1coc2c1C(=O)C(=O)c1c-2ccc2c(C)cccc12 [DS−3, Tanshinone I] | 108 ± 28.9 µM | 17.8 ± 1.03 µM | 4.54 ± 1 µM |
| 25 ± 2.03 µM | CC1=CCCc2c1ccc1c2C(=O)C(=O)c2c(C)coc2-1 [DS−4, 1,2-Dihydrotanshinquinone] | 31.8 ± 1.59 µM | 22.1 ± 1.31 µM | 5.89 ± 0.4 µM |
| 32.1 ± 1.94 µM | Cc1coc2c1C(=O)C(=O)c1c-2ccc2c1CCCC2(C)C [DS−5, Tanshinone IIA] | > 50 µM | 25.4 ± 1.43 µM | 5.91 ± 1.08 µM |

| SMILES | IC50 (HeLa cells) | IC50 (NRK−49F cells) | IC50 (U−2 OS cells; [1]) | IC50 (U−2 OS cells; [2]) |
| --- | --- | --- | --- | --- |
| C[C@H]1COC2=C1C(=O)C(=O)c1c2ccc2c1CCCC2(C)C [DS−2, Cryptotanshinone] | 52.1 ± 3.2 µM | 35.4 ± 3.25 µM | 47.8 ± 4.96 µM | 25.6 ± 0.81 µM |
